We go through 2 molecules from US20060234906A1, “Structure of a complex of retinoblastoma protein bound to e2f, and uses thereof” (priority 2002, published 2006).

Residues, ends and D or L forms follow the SMILES beside them.

One assay deals with T1, pRb/Fl-E7 (Homo sapiens, UniProt P06400).
T1 sequence (P06400 373-771 limits assumed): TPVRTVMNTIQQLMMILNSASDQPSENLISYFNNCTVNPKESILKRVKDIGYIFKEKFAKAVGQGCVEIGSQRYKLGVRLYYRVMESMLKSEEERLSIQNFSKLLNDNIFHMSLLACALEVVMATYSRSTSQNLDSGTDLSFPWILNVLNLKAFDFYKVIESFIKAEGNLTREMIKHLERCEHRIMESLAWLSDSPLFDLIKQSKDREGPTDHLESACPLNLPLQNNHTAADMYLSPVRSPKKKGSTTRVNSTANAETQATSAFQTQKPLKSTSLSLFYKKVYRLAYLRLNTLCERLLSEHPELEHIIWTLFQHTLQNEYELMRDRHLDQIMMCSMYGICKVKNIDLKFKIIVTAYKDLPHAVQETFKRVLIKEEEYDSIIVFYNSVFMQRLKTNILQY
The assay is described as follows: Fluorescence polarization displacement binding, Fl-E7 bound to pRb. Conditions: fluoro-tagged peptide 400 nM pre-incubated with pRb 1 μM. On the procedure: (§1) Fluoro-tagged peptide (400 nM) was pre-incubated with pRb (1 μM ) and unlabelled peptide added at the concentrations shown. Displacement binding curves were plotted (FIG. 4a), and were fitted to a one site competition binding model using Graphpad prism curve fitting software.
(In general: Polarisation of emitted light reports the rotation of a fluorescent probe.)

Assay [1] deals with T2, RbAB (Homo sapiens, UniProt P06400).
T2 construct: residues 372 to 589 of the A domain and 636 to 787 of the B domain; GST (with Prescission protease site) (N, cleaved yes); engineered thrombin site (LVPRGS) at the A-domain end of the A-B linker (C, cleaved yes); engineered thrombin site (LVPRGS) at the B-domain end of the A-B linker (N, cleaved yes); made in house; host or cells: E. coli
The assay is described as follows: RbAB. The source says:
(§2) Table printed on a drawing sheet, FIG. 2B
(§3) The patent's description of the figure: FIG. 2.
(§4) First copying reader's note: Binding constants of E2F fragments to the Rb constructs RbAB and RbABC; the error is printed in the same cell as the value.
(§5) Where the first naming reader finds the target: head: RbAB

In assay [2] the target is T3, RbABC (Homo sapiens, UniProt P06400).
T3 construct: His6-RbABC (RESIDUES 380-929); made in house; host or cells: E. coli
Nature of the assay: RbABC.
Excerpt: as §2, §3, §4
(§6) Where the first naming reader finds the target: head: RbABC

In another assay the target is T4, pRb (Homo sapiens, UniProt P06400).
T4 construct: His6-RbAB (residues 376-792); made in house
T4 sequence (P06400 376-792): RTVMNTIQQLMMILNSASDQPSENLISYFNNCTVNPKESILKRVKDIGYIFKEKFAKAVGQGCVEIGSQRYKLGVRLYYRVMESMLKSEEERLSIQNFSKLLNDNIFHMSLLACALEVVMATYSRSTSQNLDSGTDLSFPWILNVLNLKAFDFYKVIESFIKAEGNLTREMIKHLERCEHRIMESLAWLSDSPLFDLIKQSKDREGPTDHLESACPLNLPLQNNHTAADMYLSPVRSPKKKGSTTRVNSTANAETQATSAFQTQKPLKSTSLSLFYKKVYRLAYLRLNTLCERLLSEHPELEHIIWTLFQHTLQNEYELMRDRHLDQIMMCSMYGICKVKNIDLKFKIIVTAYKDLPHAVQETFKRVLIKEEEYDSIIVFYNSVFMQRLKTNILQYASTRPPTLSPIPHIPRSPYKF
The assay is described as follows: Competition experiment (Ni column, SDS-PAGE): E2F(409-426) against E2F(243-437) for binding to pRb. Conditions: qualitative competition experiment. The source says:
The proteins used in these experiments were His6-RbABC (RESIDUES 380-929); MW 66.07 kDa, non-tagged RbAB (residues 372-787); MW 48.67 KDa, are His6-RbAB (residues 376-792); MW 49.86 KDa, E2F(243-437); MW 21.45 KDa HPV E7 (residues 17-98); MW 9.38 KDa and E2F(409-426); MW 2.12 KDa. Protein concentrations were carefully determined by u.v. spectroscopy and confirmed by ITC titrations. The small acidic E2F proteins stain much weaker than Rb with Coomassie on SDS-PAGE. For all gel lanes contained a final RbAB concentration of ca. 7 μM. After equilibration with E2F(243-437) and E2F(409-426) the samples were loaded onto a 1.0 ml Ni column and washed with 7×0.5 ml of loading buffer (50 mM Tris pH 7.5, 200 mM NaCl & 10 mM Imidazole). The samples were then eluted with 7×0.5 ml elution buffer (50 mM Tris, pH 7.5, 200 mM NaCl, 200 mM Imidazole). After volume correction samples were boiled in SDS loading buffer and run on a 4-12% SDS PAGE. For the two pRb proteins and E2F(243-437) were mixed at 40 μM in a final volume of 0.5 ml. After equilibration for 2 hrs the mixture was loaded onto 1 ml Ni beads in a small column, washed with 7×0.5 ml of loading buffer (50 mM Tris, pH 7.5, 200 mM NaCl, 10 mM Imidazole), eluted using 7×0.5 ml elution buffer (50 mM Tris, pH 7.5, 200 mM NaCl, 200 mM Imidazole). Samples, after correcting for volume were boiled in SDS sample buffer and run on a 4-12% SDS gel.

Another assay has as its target T5, pRb/Fl-E2F (Homo sapiens, UniProt P06400).
T5 sequence (P06400 373-771 limits assumed): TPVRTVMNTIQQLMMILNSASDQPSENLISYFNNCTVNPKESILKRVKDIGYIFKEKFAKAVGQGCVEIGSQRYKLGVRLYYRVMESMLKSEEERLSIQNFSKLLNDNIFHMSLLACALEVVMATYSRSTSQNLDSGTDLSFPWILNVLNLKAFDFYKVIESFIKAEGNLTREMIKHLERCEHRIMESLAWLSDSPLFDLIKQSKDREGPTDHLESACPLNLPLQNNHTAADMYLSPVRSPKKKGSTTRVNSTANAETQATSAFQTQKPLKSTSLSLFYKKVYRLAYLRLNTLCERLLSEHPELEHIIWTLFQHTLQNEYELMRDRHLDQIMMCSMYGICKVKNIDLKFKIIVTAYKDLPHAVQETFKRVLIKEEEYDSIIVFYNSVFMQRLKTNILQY
Nature of the assay: Fluorescence polarization displacement binding, Fl-E2F bound to pRb. The note with it: fluoro-tagged peptide 400 nM pre-incubated with pRb 1 μM. Here is the method: as §1

For assay [3], the target named is T6, RbAB (Homo sapiens, UniProt P06400).
T6 construct: residues 372 to 589 of the A domain and 636 to 787 of the B domain; GST (with Prescission protease site) (N, cleaved yes); engineered thrombin site (LVPRGS) at the A-domain end of the A-B linker (C, cleaved yes); engineered thrombin site (LVPRGS) at the B-domain end of the A-B linker (N, cleaved yes); made in house; host or cells: E. coli
T6 sequence (P06400 whole entry, looked up): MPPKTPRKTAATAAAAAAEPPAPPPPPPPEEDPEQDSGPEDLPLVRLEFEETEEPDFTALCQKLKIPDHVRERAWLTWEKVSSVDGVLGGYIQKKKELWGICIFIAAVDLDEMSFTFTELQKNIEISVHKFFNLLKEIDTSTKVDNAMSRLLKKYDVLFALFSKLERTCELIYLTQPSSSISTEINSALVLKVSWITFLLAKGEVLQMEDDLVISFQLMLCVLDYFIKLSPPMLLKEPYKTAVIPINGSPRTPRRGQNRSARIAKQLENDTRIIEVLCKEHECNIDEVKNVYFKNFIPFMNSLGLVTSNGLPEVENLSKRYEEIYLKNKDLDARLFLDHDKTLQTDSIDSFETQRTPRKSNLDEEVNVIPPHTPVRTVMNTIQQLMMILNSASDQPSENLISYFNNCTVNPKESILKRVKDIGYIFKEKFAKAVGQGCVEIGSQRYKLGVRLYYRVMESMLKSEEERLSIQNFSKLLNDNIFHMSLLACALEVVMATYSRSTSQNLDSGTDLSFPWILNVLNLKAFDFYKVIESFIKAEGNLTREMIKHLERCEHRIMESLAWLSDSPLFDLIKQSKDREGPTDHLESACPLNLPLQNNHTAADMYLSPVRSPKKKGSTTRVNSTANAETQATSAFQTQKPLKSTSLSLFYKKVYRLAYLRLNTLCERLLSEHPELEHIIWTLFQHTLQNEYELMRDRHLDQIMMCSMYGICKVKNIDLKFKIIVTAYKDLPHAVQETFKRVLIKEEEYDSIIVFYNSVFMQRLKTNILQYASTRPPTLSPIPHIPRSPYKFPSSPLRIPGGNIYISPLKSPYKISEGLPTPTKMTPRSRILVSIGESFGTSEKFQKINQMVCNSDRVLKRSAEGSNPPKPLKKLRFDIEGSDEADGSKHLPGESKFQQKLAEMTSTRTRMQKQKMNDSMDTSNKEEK
Nature of the assay: RbAB.
Excerpt: as §2, §3, §4, §5
This is another data set of the same source.

Assay [4] concerns the target T7, RbABC (Homo sapiens, UniProt P06400).
T7 construct: His6-RbABC (RESIDUES 380-929); made in house; host or cells: E. coli
T7 sequence (P06400 whole entry, looked up): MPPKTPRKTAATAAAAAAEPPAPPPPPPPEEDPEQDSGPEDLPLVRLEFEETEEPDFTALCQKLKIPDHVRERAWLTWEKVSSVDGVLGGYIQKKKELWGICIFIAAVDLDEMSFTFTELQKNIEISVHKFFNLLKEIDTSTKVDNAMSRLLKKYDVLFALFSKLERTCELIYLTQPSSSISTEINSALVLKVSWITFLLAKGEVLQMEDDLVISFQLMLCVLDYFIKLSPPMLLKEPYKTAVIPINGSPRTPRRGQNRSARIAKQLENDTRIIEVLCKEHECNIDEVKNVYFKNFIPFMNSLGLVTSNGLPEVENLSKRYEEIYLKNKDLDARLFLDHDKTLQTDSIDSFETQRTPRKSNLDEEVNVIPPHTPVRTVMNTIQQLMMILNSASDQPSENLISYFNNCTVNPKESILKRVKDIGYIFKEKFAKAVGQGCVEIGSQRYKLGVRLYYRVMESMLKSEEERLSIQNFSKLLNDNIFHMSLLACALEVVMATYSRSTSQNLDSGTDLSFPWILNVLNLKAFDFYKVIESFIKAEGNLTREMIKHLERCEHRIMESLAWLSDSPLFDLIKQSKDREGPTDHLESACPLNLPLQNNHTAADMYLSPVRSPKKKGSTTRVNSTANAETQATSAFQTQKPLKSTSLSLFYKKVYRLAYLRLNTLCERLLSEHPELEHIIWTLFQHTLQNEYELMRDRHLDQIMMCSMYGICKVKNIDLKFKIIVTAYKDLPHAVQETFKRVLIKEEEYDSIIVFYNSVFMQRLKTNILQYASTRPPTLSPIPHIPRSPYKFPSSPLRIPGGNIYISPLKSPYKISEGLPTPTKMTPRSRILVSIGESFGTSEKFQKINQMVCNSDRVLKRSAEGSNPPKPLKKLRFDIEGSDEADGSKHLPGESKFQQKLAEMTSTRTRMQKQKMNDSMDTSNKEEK
The assay is described as follows: RbABC.
Excerpt: as §2, §3, §4, §6
The source holds these as a separate data set.

For `CC[C@H](C)[C@H](NC(=O)CNC(=O)[C@H](CCC(=O)O)NC(=O)CNC(=O)[C@H](CCC(=O)O)NC(=O)[C@H](CCC(=O)O)NC(=O)[C@H](CC(C)C)NC(=O)CNC(=O)[C@H](Cc1ccccc1)NC(=O)[C@H](Cc1c[nH]cn1)NC(=O)[C@H](Cc1ccc(O)cc1)NC(=O)[C@H](CC(=O)O)NC(=O)[C@@H](N)CC(C)C)C(=O)N[C@@H](CCCNC(=N)N)C(=O)N[C@@H](CC(=O)O)C(=O)N[C@@H](CC(C)C)C(=O)N[C@@H](Cc1ccccc1)C(=O)N[C@@H](CC(=O)O)C(=O)O` [E2F(409-426)] (H-LDYHFGLEEGEGIRDLFD-OH), the “displacement of Fl-E7 from pRb” value on pRb/Fl-E7 is “without disrupting F1-E7 binding”. Further, the dissociation constant Kd – broadly, a measure of binding affinity in units of concentration – was 340 ± 20 nM on RbAB [1] and 300 ± 30 nM at RbABC [2]. Besides, at pRb, the “molar excess required to 50% compete with E2F(243-437) for binding to pRb” value is listed as 15-to 30 fold. The “displacement of Fl-E2F from pRb” value at pRb/Fl-E2F is recorded as “displace Fl-E2F”.
Consider “E2F(380-437): Synthetic peptide of E2F residues 380-437 (ADSLLEHVREDFSGLLPEEFISLSPPHEALDYHFGLEEGEGIRDLFDCDFGDLTPLDF; UniProt Q01094 380-437, looked up, fragment)”, for which the results for the dissociation constant (Kd) with RbAB [3] and with RbABC [4] were 160 ± 10 nM and 100 ± 10 nM, respectively.
